Experiment [1] relates to primary human T-cells. The experiment can be described thus: IL2 secretion by primary human T-cells. The class given is cell-based. The text has this:
The JNK inhibitors used are indicated by their SEQ ID NO: 172 and 197.

Experiment [2] deals with endotoxins-induced uveitis albino rat model. Kind of experiment: Endotoxins induced uveitis (EIU), single intravenous injection, clinical scoring 24 hours after LPS. In kind it is in vivo. Further details: key to clinical score of ocular inflammation, mean score (mean±SEM) / clinical score of ocular inflammation, median: ocular inflammation score per eye, 0 = none to 4 = intense (+1 fibrin). The following applies: for clinical score of ocular inflammation, mean score (mean±SEM) / clinical score of ocular inflammation, median: 24 hours after LPS. The protocol:
FIG. 28 Clinical evaluation of administration of different amounts of the JNK inhibitor according to SEQ ID NO: 172 in albino rats after intravenous administration (endotoxins induced uveitis model). Form left to right: Vehicle, 0.015 mg/kg (i.v.) of SEQ ID NO: 172; 0.18 mg/kg (i.v.) of SEQ ID NO: 172; 1.8 mg/kg (i.v.) of SEQ ID NO: 172, 2 mg/kg (i.v.) of SEQ ID NO: 197 and 20 μg dexamethasone (administered directly by subconjunctival injection to the eye). Indicated is the clinical score (mean and the SEM).
The anti-inflammatory potency of the JNK inhibitor of SEQ ID NO: 172 was tested in albino rats following intravenous administration (EIU/LPS model). The aim of this study was to determine the effects of single intravenous injections of SEQ ID NO: 172 (0.015, 0.18, and 1.80 mg/kg) on the inflammatory response in an endotoxins-induced uveitis albino rat model and to compare these affects to those obtained with prior art JNK inhibitor of SEQ ID NO: 197 (2 mg/kg). As a further control served phosphate sodic dexamethasone.
Sixty (60) male Lewis rats were randomly divided into six (6) groups of ten (10) animals each. EIU was induced by footpad injection of lipopolysaccharide (LPS, 1 mg/kg). NaCl (0.9%), SEQ ID NO: 197 at 2 mg/kg and SEQ ID NO: 172 at three concentrations (1.80 mg/kg, 0.18 mg/kg and 0.015 mg/kg) were administered by intravenous injection. Phosphate sodic dexamethasone ([…]) was administered by sub-conjunctival injection in both eyes. 24 hours after LPS injection, inflammatory response was evaluated by clinical scoring.
The intensity of clinical ocular inflammation was scored on a scale from 0 to 4 for each eye: • Grade 0 no inflammation • Grade 1 slight iris and conjunctival vasodilation • Grade 2 moderate iris and conjunctival vasodilation with flare • Grade 3 intense iris and conjunctival vasodilation with flare • Grade 4 intense inflammatory reaction • (+1) fibrin formation and seclusion of pupils

The test system of experiment [3] is established type II collagen arthritis in rats. The class given is in vivo, rat. The text has this: Rat collagen arthritis is an experimental model of polyarthritis that has been widely used for preclinical testing of numerous anti-arthritic agents that are either under preclinical or clinical investigation or are currently used as therapeutics in this disease. The hallmarks of this model are reliable onset and progression of robust, easily measurable polyarticular inflammation, marked cartilage destruction in association with pannus formation, and mild to moderate bone resorption and periosteal bone proliferation.
Intravenous (IV) efficacy of the JNK inhibitor of SEQ ID NO: 172 administered daily (QD) for 14 days (arthritis d1-14) for inhibition of the inflammation (paw swelling), cartilage destruction, and bone resorption that occurs in established type II collagen arthritis in rats was determined in said experimental model. […]
Female Lewis rats with established type II collagen arthritis were treated daily (QD) on arthritis days 1-14 by the intravenous (IV) route with vehicle (NaCl), SEQ ID NO: 172 (0.01, 0.1, 1, or 5 mg/kg), or the reference compound dexamethasone (Dex, 0.05 mg/kg). […] Efficacy evaluation was based on animal body weights, daily ankle caliper measurements, ankle diameter expressed as area under the curve (AUC), terminal hind paw weights, and histopathologic evaluation of ankles and knees of selected groups. […]

The source of these data is patent US10596223B2, “JNK inhibitor molecules for treatment of various diseases” (Xigen Inflammation Ltd., priority 2011, dated 2020).

Square brackets hold non-standard residues; d marks the D form. Peptide text beside a SMILES is read from it.

With `CC(C)C[C@H](NC(=O)[C@H](CC(N)=O)NC(=O)[C@H](CC(C)C)NC(=O)[C@@H](NC(=O)[C@@H](C)NC(=O)[C@@H]1CCCN1C(=O)[C@H](CCCNC(=N)N)NC(=O)[C@@H](CCCCN)NC(=O)[C@@H]1CCCN1C(=O)[C@H](CCCNC(=N)N)NC(=O)[C@@H](CCCNC(=N)N)NC(=O)[C@H](CCCNC(=N)N)NC(=O)[C@H](CCCNC(=N)N)NC(=O)[C@H](CCC(N)=O)NC(=O)[C@@H](CCCNC(=N)N)NC(=O)[C@H](CCCNC(=N)N)NC(=O)[C@H](CCCCN)NC(=O)[C@H](CCCCN)NC(=O)[C@H](N)CCCNC(=N)N)[C@@H](C)O)C(=O)N[C@H](Cc1ccccc1)C(N)=O` [SEQ ID NO: 172, rKKRrQRRrRPkRPaTLNLf] (H-[dR]KKR[dR]QRR[dR]RP[dK]RP[dA]TLNL[dF]-NH2; N-terminus assumed), in experiment [1], the “IL2 secretion in response to CD3/CD28 stimulation” value was “blocks IL2 secretion” and the “IL2 secretion in response to PMA/Ionomycin” value was “blocks IL2 secretion”. Further, in experiment [2] (0.015 mg/kg intravenous), the “clinical score of ocular inflammation, mean score (mean±SEM)” value (“clinical score … (mean±SEM)” for short) came out at 2.3±0.3 and the “clinical score of ocular inflammation, median” value (from here on “clinical score … median”) amounted to 2. Also, in experiment [2] (0.18 mg/kg intravenous), the “clinical score … (mean±SEM)” value worked out at 2.4±0.3 and the “clinical score … median” value was found to be 2. Further, in experiment [2] (1.80 mg/kg intravenous), the “clinical score … (mean±SEM)” value worked out at 2.1±0.3 and the “clinical score … median” value came to 2. In experiment [2] (single intravenous injection, SEQ ID NO: 197 at 2 mg/kg, SEQ ID NO: 172 at 0.015, 0.18, 1.80 mg/kg), the “endotoxin-induced inflammation in the anterior chamber (conclusion)” value is “also reduced the endotoxin-induced inflammation”. In experiment [3] (5 mg/kg IV QD 14 days), the “clinical and histopathology parameters (conclusion)” value was “significant beneficial effect on the clinical and histopathology parameters”. For the same compound, in experiment [3] (5 mg/kg IV QD, p<0.05 days 4-12), the “daily ankle diameter measurements vs disease controls” value is “reduced toward normal”.
